What was measured:
HCC827 = experiment: Antiproliferative activity against human HCC827 cells assessed as reduction in cell viability after 72 hrs by MTT assay; format: functional, cell-based; settings: HCC827, 72 h
NCI-H460 [1] = experiment: Antiproliferative activity against human NCI-H460 cells assessed as reduction in cell viability after 72 hrs by MTT assay; format: functional, cell-based; settings: NCI-H460, 72 h
[2] = Metabolic stability in human liver microsomes assessed as intrinsic clearance per gram protein; format: ADME, Microsome
[3] = Antitumor activity against mouse C26 cells xenografted in BALB/c mouse assessed as tumor growth inhibition at 50 mg/kg, po administered once daily and measured every two days by caliper method relative to control; format: functional; settings: 48 h, read-out: TGI
[4] = Toxicity in nude BALB/c mouse xenografted with C26 cells assessed as abnormalities in liver size and morphology at 50 mg/kg, po administered once daily; format: organism-based; settings: in vivo
[5] = Toxicity in nude BALB/c mouse xenografted with C26 cells assessed as abnormalities in kidney size and morphology at 50 mg/kg, po administered once daily; format: organism-based; settings: in vivo
NCI-H460 [6] = experiment: Antitumor activity against human NCI-H460 cells xenografted in nude BABL/c mouse assessed as tumor growth inhibition at 20 mg/kg, po administered once daily and measured every two days by caliper method relative to control; format: functional; settings: 48 h, read-out: TGI
[7] = Toxicity in nude BALB/c mouse xenografted with human NCI-H460 cells assessed as abnormalities in tissue at 20 to 40 mg/kg, po administered once daily; format: organism-based; settings: in vivo, dose 20-40 mg/kg
NCI-H460 [8] = experiment: Induction of cell cycle arrest in human NCI-H460 cells assessed as accumulation at G0/G1 phase at 5 uM incubated for 24 hrs by propidium iodide staining based flow cytometry (reference value: 53.97 %); format: functional
NCI-H460 [9] = experiment: Induction of apoptosis in human NCI-H460 cells assessed as early apoptotic cells at 1 uM after 48 hrs by Annexin V-FITC/propidium iodide staining based flow cytometric analysis (reference value: 3.980 %); format: functional
NCI-H460 [10] = experiment: Induction of apoptosis in human NCI-H460 cells assessed as late apoptotic cells at 1 uM after 48 hrs by Annexin V-FITC/propidium iodide staining based flow cytometric analysis (reference value: 3.995 %); format: functional
NCI-H460 [11] = experiment: Induction of apoptosis in human NCI-H460 cells assessed as necrotic cells at 2 uM after 48 hrs by Annexin V-FITC/propidium iodide staining based flow cytometric analysis (reference value: 0.498 %); format: functional
NCI-H460 [12] = experiment: Induction of apoptosis in human NCI-H460 cells assessed as necrotic cells at 5 uM after 48 hrs by Annexin V-FITC/propidium iodide staining based flow cytometric analysis (reference value: 0.498 %); format: functional
NCI-H460 [13] = experiment: Induction of apoptosis in human NCI-H460 cells assessed as early apoptotic cells at 10 uM after 48 hrs by Annexin V-FITC/propidium iodide staining based flow cytometric analysis (reference value: 3.980 %); format: functional
NCI-H460 [14] = experiment: Induction of apoptosis in human NCI-H460 cells assessed as necrotic cells at 10 uM after 48 hrs by Annexin V-FITC/propidium iodide staining based flow cytometric analysis (reference value: 0.498 %); format: functional
NCI-H460 [15] = experiment: Induction of apoptosis in human NCI-H460 cells assessed as increase in cleaved caspase 3 expression level after 48 hrs by Western blot analysis; format: functional, cell-based; settings: dose 0.5-10 µM
NCI-H460 [16] = experiment: Induction of autophagy in human NCI-H460 cells assessed as up regulation of Beclin 1 protein expression after 24 hrs by Western blot analysis; format: functional, cell-based; settings: dose 0.5-10 µM

Question: With `C=CCc1ccc(OC(C)C)c(-c2cc(CC=C)cc(CN3CCC(N)CC3)c2O)c1` as the molecule, how does the IC50 (HCC827) read?
Answer: The IC50 was 630 nM.

Question: What about the IC50 (NCI-H460 [1]) of the same molecule?
Answer: Its IC50 is 860 nM.

Question: What about the CLint [2] of the same molecule?
Answer: The CLint was 8.8 mL/min/g.

Question: And the inhibition in vivo at 50 mg/kg [3]?
Answer: The inhibition in vivo at 50 mg/kg was 65.4%.

Question: And the Activity [4]?
Answer: Its Activity is “Non-Toxic”.

Question: And the Activity [5]?
Answer: Its Activity is “Non-Toxic”.

Question: What about the inhibition in vivo at 20 mg/kg (NCI-H460 [6]) of the same molecule?
Answer: The inhibition in vivo at 20 mg/kg was 33.5%.

Question: And the Activity [7]?
Answer: Its Activity is “Non-Toxic”.

Question: And the Activity (NCI-H460 [8])?
Answer: The Activity was 59.89%.

Question: What about the Activity (NCI-H460 [9]) of the same molecule?
Answer: The Activity was 4.467%.

Question: What about the Activity (NCI-H460 [10]) of the same molecule?
Answer: Its Activity is 3.979%.

Question: What about the Activity (NCI-H460 [11]) of the same molecule?
Answer: The Activity was 0.874%.

Question: What about the Activity (NCI-H460 [12]) of the same molecule?
Answer: The Activity was 0.608%.

Question: What about the Activity (NCI-H460 [13]) of the same molecule?
Answer: The Activity was 34.82%.

Question: And the Activity (NCI-H460 [14])?
Answer: The Activity was 1.58%.

Question: What about the Activity (NCI-H460 [15]) of the same molecule?
Answer: Its Activity is “Dose-dependent effect”.

Question: What about the Activity (NCI-H460 [16]) of the same molecule?
Answer: Its Activity is “Dose-dependent effect”.
